Consider 18 compounds from patent publication US20230219965A1 (KSQ Therapeutics, Inc., priority 2020, published 2023).

Data set [1] deals with USP1/UAF1 enzyme (Homo sapiens, UniProt O94782). The experiment in a line: USP1/UAF1 deubiquitination assay (ubiquitin-rhodamine 110 substrate). It counts as biochemical. The note with it: read-out: USP1 IC50 (Ub-Rho). In a few lines: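 0.05 nM USP1/UAF1 was preincubated 10 min with compounds (dose response from 10 μM) in 50 mM Tris-HCl pH 7.8, 0.5 mM EDTA, 0.01% BSA, 1 mM DTT, 0.01% Tween-20. 150 nM ubiquitin-rhodamine 110 started the reaction, read kinetically 30 min at Ex480/Em540; IC50 by four-parameter fit versus no-enzyme and DMSO controls.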
USP1/UAF1 enzyme, sequence (O94782 whole entry): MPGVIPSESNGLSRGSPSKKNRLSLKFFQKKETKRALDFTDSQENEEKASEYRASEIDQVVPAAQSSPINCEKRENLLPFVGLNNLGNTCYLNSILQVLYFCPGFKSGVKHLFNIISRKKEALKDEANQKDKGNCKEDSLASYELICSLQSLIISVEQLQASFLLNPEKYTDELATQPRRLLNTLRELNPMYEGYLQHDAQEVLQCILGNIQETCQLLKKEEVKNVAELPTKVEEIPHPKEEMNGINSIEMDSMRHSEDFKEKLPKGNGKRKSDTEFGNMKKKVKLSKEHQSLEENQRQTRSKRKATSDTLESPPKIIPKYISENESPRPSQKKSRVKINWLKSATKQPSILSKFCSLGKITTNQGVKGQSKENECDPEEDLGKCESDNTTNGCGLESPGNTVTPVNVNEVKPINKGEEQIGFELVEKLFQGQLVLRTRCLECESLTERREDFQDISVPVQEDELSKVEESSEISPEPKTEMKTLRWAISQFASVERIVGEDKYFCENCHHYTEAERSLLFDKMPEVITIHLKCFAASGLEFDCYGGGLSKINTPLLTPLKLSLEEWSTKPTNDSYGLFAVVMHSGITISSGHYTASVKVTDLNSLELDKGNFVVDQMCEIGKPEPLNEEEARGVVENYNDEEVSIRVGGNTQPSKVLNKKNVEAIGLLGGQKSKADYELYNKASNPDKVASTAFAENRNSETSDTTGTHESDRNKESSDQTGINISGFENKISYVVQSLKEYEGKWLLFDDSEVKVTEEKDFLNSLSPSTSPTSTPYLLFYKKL
USP1/UAF1 enzyme, sequence (Q8TAF3 whole entry partner): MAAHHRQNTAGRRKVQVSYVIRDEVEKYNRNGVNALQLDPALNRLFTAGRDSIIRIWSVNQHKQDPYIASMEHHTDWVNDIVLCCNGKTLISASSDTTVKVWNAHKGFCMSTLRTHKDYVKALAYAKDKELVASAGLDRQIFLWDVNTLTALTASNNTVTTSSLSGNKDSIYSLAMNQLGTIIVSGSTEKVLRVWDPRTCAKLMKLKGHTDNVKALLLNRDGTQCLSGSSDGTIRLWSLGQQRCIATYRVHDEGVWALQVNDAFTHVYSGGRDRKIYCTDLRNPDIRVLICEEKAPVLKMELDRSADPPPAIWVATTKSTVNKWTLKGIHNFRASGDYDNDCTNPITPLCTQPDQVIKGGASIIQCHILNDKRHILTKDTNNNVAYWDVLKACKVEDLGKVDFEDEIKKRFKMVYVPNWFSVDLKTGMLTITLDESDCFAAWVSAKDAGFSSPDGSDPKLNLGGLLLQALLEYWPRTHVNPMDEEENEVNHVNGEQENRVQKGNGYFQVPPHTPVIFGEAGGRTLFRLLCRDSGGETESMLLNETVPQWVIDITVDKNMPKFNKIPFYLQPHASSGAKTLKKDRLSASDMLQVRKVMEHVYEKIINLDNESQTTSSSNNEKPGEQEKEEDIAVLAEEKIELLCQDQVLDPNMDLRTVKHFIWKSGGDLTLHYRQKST

The subject of data set [2] is Ub-PCNA levels in the nucleus of ES2 cells (USP1 activity). The experiment in a line: ES2 Ub-PCNA immunofluorescence (IF) assay. It counts as cell-based. To be noted: Homo sapiens, ES-2; ES2 cells, 3 hours, Ub-PCNA immunofluorescence; read-out: USP1 IC50 (Ub-PCNA). An outline of the steps: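 Cells plated overnight, then compound-treated for 3 h at 37° C (0.3% DMSO final), methanol-fixed and stained with anti-Ub-PCNA plus DAPI. Per-nucleus Ub-PCNA intensity imaged; cells above the 95% cutoff of untreated wells counted as positive, and percent positive cells used to derive AC50.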

A short description of data set [3]: ADME solubility determination in PBS at pH 2.0 and pH 7.4. It counts as physicochemical. To be noted: phosphate buffered saline, 25 °C, thermodynamic from solid. In a few lines: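 Dried 10 mM DMSO stock residues taken up in PBS pH 7.4 or pH 2.0, shaken 24 h at 25° C. After centrifugation, supernatant quantified by LC-MS/MS against a standard of known concentration, with a dilution factor applied.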

A short description of data set [4]: Liver microsomal metabolic stability, rat liver microsomes (RLM). The note with it: rat, liver microsomes, t1/2 (min) in RLM, 1 μM compound, 1 mg/mL microsomes, NADPH.
Data set [5] in a line: Liver microsomal metabolic stability, human liver microsomes (HLM). The note with it: human, liver microsomes.
Method: Samples were prepared by adding 222.5 μL of a master solution (100 mM phosphate buffer and 1 mg/mL liver microsomes (HLM or RLM)) and 25 μL of a 10 mM NADPH solution to incubation plates, which were then warmed for 10 min. Each compound was separately dissolved in DMSO to prepare 10 mM stock solutions, which were then diluted to 100 μM with acetonitrile. A reaction was started by adding 2.5 μL of the 100 μM solution of each compound to separate incubation plates such that the final concentration of for each compound in each plate was 1 μM.
25 μL aliquots of each sample were taken at 0.5, 5, 10, 15, 20 and 30 minutes, and the reaction was stopped by adding 5 volumes of cold acetonitrile with IS (100 nM alprazolam, 200 nM caffeine and 100 nM tolbutamide). The samples were then centrifuged at 3,220 G for 30 minutes, and 100 μL of the supernatant fluid was mixed with 100 μL of ultra-pure H2O.
The samples were then analyzed by LC-MS/MS. Peak areas were determined from extracted ion chromatograms. Slope values (k) were determined by linear regression of the natural logarithm of the remaining percentage of the compound vs. incubation time curve. The in vitro half-life (in vitro t1/2) was determined from the slope value using the following equation:
Setting [6] is: pH 2, aqueous buffer, PBS pH 2.0, 25° C., read-out: Solubility at pH 2.0.
[7] abbreviates: pH 7.4, aqueous buffer, PBS pH 7.4, 25° C., read-out: Solubility at pH 7.4.

Read-outs that look alike come from different tables or passages of the source.

On to `Cc1cnn(C(C)C)c1-c1nn2c(c1Cl)N(Cc1ccc(-c3nc(C(F)(F)F)cn3C)cc1)CCC2` [Example 147, 3-chloro-2-(1-isopropyl-4-methyl-1H-pyrazol-5-yl)-4-(4-(1-methyl-4-(trifluoromethyl)-1H-imidazol-2-yl)benzyl)-4,5,6,7-tetrahydropyrazolo[1,5-α]pyrimidine], for which the IC50 in data set [1] and in data set [2] was less than 100 nM throughout. The solubility at 24 h in data set [3] (setting [6]) and in data set [3] (setting [7]) was less than 10 µM in each case. In addition, the half-life at 1 μM in data set [4] and in data set [5] was less than 25 min each time.
On to `Cc1cnn(C(C)C)c1-c1nn2c(c1Cl)N(Cc1ccc(-c3nc(C(F)(F)F)cn3C(C)C)c(F)c1)CCC2` [Example 148], for which the IC50 in data set [1] and in data set [2] was less than 100 nM each time. The solubility at 24 h in data set [3] (setting [6]) and in data set [3] (setting [7]) was less than 10 µM each time. For the same compound, the half-life at 1 μM in data set [4] and in data set [5] was less than 25 min each time.
On to `CCn1cc(C(F)(F)F)nc1-c1ccc(CN2C(=O)CCn3nc(-c4c(Cl)cnn4C(C)COC)cc32)cc1` (stereo not drawn) [Example 151], for which the IC50 in data set [1] and in data set [2] was less than 100 nM each time. Further, the solubility at 24 h in data set [3] (setting [6]) and in data set [3] (setting [7]) was less than 10 µM in each case. The half-life at 1 μM in data set [4] and in data set [5] was less than 25 min each time.
As for `CCn1cc(C(F)(F)F)nc1-c1ccc(CN2C(=O)CCn3nc(-c4c(Cl)cnn4C4(COC)CC4)cc32)cc1F` [Example 153], the figures for the concentration for half-maximal inhibition (IC50) in data set [1] and in data set [2] were less than 100 nM and 100 to 500 nM, respectively. In addition, the solubility at 24 h in data set [3] (setting [6]) and in data set [3] (setting [7]) was less than 10 µM throughout. Further, the half-life at 1 μM in data set [4] and in data set [5] was less than 25 min in each case.
As to `CCn1cc(C(F)(F)F)nc1-c1ccc(CN2C(=O)CCn3nc(-c4c(Cl)cnn4C4(COC)CC4)cc32)cc1` [Example 159], the half-inhibitory concentration (IC50) in data set [1] was less than 100 nM; in data set [2], 100 to 500 nM. For the same compound, the solubility at 24 h in data set [3] (setting [6]) and in data set [3] (setting [7]) was less than 10 µM in each case. In addition, the half-life at 1 μM in data set [4] was less than 25 min; in data set [5], greater than 25 min.
Turning to `CCn1cc(C(F)(F)F)nc1-c1ccc(CN2C(=O)CCn3nc(-c4c(Cl)cnn4C(C)COC)cc32)cc1F` (stereo not drawn) [Example 160], the concentration for half-maximal inhibition (IC50) in data set [1] is less than 100 nM; in data set [2] it was 100 to 500 nM. In addition, the solubility at 24 h in data set [3] (setting [6]) and in data set [3] (setting [7]) was less than 10 µM each time. Also, the half-life at 1 μM in data set [4] and in data set [5] was less than 25 min each time.
For the compound `COc1ncnc(C2CC2)c1-c1nc2n(n1)CCC(=O)N2Cc1ccc(-c2nc(C(F)(F)F)cn2C(C)C)c(F)c1` [Example 164, 2-(4-cyclopropyl-6-methoxypyrimidin-5-yl)-4-(3-fluoro-4-(1-isopropyl-4-(trifluoromethyl)-1H-imidazol-2-yl)benzyl)-6,7-dihydro-[1,2,4]triazolo[1,5-α]pyrimidin-5(4H)-one], the IC50 in data set [1] and in data set [2] was less than 100 nM in each case. Moreover, the solubility at 24 h in data set [3] (setting [6]) and in data set [3] (setting [7]) was less than 10 µM throughout. The half-life at 1 μM in data set [4] and in data set [5] was greater than 25 min in each case.
On to `COc1cc(CN2C(=O)CCn3nc(-c4c(Cl)cnn4C(C)C)nc32)ccc1-c1nc(C(F)(F)F)cn1C(C)C` [Example 165], for which the figures for the IC50 in data set [1] and in data set [2] were less than 100 nM and 100 to 500 nM, respectively. For the same compound, the solubility at 24 h in data set [3] (setting [6]) and in data set [3] (setting [7]) was less than 10 µM throughout. The half-life at 1 μM in data set [4] and in data set [5] was greater than 25 min throughout.
Regarding `COc1cc(CN2C(=O)CCn3nc(-c4c(OC)ncnc4C4CC4)nc32)ccc1-c1nc(C(F)(F)F)cn1C(C)C` [Example 166], the half-inhibitory concentration (IC50) in data set [1] and in data set [2] was 100 to 500 nM in each case. For the same compound, the solubility at 24 h in data set [3] (setting [6]) and in data set [3] (setting [7]) was no less than 10 µM each time. Besides, the half-life at 1 μM in data set [4] and in data set [5] was greater than 25 min throughout.
For the compound `COc1ncnc(C2CC2)c1-c1nc2n(n1)CCC(=O)N2Cc1ccc(-c2nc(C(F)(F)F)cn2C(C)C)cc1` [Example 168], the IC50 in data set [1] and in data set [2] was less than 100 nM each time. Also, the solubility at 24 h in data set [3] (setting [6]) and in data set [3] (setting [7]) was less than 10 µM each time. The half-life at 1 μM in data set [4] and in data set [5] was greater than 25 min each time.
Regarding `COc1ncnc(C2CC2)c1-c1nc2n(n1)CCC(=O)N2C(C)c1ccc(-c2nc(C(F)(F)F)cn2C(C)C)cc1` (stereo not drawn) [Example 169], the concentration for half-maximal inhibition (IC50) in data set [1] was less than 100 nM; in data set [2], 100 to 500 nM. For the same compound, the solubility at 24 h in data set [3] (setting [6]) is no less than 10 µM; in data set [3] (setting [7]), less than 10 µM. For the same compound, the half-life at 1 μM in data set [4] and in data set [5] was greater than 25 min each time.
`COc1ncnc(C2CC2)c1-c1nc2n(n1)CCC(=O)N2Cc1ccc(-c2nc(C(F)(F)F)cn2C)c(F)c1` [Example 170]: the IC50 in data set [1] and in data set [2] was less than 100 nM throughout. The solubility at 24 h in data set [3] (setting [6]) and in data set [3] (setting [7]) was no less than 10 µM each time. For the same compound, the half-life at 1 μM in data set [4] and in data set [5] was greater than 25 min in each case.
As for `CCn1cc(C(F)(F)F)nc1-c1ccc(CN2C(=O)CCn3nc(-c4c(OC)ncnc4C4CC4)nc32)cc1` [Example 171], the IC50 in data set [1] and in data set [2] was less than 100 nM throughout. Moreover, the solubility at 24 h in data set [3] (setting [6]) and in data set [3] (setting [7]) was no less than 10 µM each time. For the same compound, the half-life at 1 μM in data set [4] and in data set [5] was greater than 25 min throughout.
Turning to `COc1ncnc(C2CC2)c1-c1nc2n(n1)CCC(=O)N2Cc1ccc(-c2nc(C(F)(F)F)cn2C(C)C)c(Cl)c1` [Example 172], the 50% inhibitory concentration (IC50) was less than 100 nM in data set [1] and 100 to 500 nM in data set [2]. The solubility at 24 h in data set [3] (setting [6]) and in data set [3] (setting [7]) was no less than 10 µM throughout. Also, the half-life at 1 μM in data set [4] and in data set [5] was greater than 25 min each time.
`COc1ncnc(C2CC2)c1-c1nc2n(n1)CCC(=O)N2[C@@H](C)c1ccc(-c2nc(C(F)(F)F)cn2C(C)C)c(F)c1` [Example 173]: the half-maximal inhibitory concentration (IC50) in data set [1] and in data set [2] was less than 100 nM throughout. For the same compound, the solubility at 24 h in data set [3] (setting [6]) and in data set [3] (setting [7]) was no less than 10 µM in each case. Moreover, the half-life at 1 μM in data set [4] and in data set [5] was greater than 25 min each time.
As for `COc1ncnc(C2CC2)c1-c1nc2n(n1)CCC(=O)N2[C@H](C)c1ccc(-c2nc(C(F)(F)F)cn2C(C)C)c(F)c1` [Example 174], the IC50 in data set [1] and in data set [2] was less than 100 nM throughout. The solubility at 24 h in data set [3] (setting [6]) and in data set [3] (setting [7]) was no less than 10 µM throughout. Also, the half-life at 1 μM in data set [4] and in data set [5] was greater than 25 min throughout.
For `CCn1cc(C(F)(F)F)nc1-c1ccc(CN2C(=O)CCn3nc(-c4c(OC)ncnc4C4CC4)nc32)cc1Cl` [Example 175], the IC50 in data set [1] and in data set [2] was less than 100 nM throughout. Moreover, the solubility at 24 h in data set [3] (setting [6]) and in data set [3] (setting [7]) was no less than 10 µM in each case. Also, the half-life at 1 μM in data set [4] and in data set [5] was greater than 25 min throughout.
As for `CCn1cc(C(F)(F)F)nc1-c1c(F)cc(CN2C(=O)CCn3nc(-c4c(OC)ncnc4C4CC4)nc32)cc1OC` [Example 176], the IC50 in data set [1] and in data set [2] was less than 100 nM each time. The solubility at 24 h in data set [3] (setting [6]) and in data set [3] (setting [7]) was no less than 10 µM in each case. In addition, the half-life at 1 μM in data set [4] and in data set [5] was greater than 25 min each time.
